Measured values as given in article PMC6966871 (Journal of Hematology & Oncology, 2020).

How the values were obtained:
[1] = set-up: species or system human (Chinese patients); conditions: human, in vivo
Experimental: (§1) For the single-dose PK test in the cycle 0, serial peripheral blood samples were collected at pre-dose and at 0.5, 1, 2, 3, 4, 6, 8, 12, 16, 24, 48, 72, and 144 h post-dose. For the continuous dose PK test in the cycle 1, serial peripheral blood samples were collected at pre-dose on days 8, 15, 22, and 28, and at 0.5, 1, 2, 3, 4, 5, 6, 8, 12, 16, 24, 48, and 72 h post-dose on day 28. All serial peripheral blood samples were collected in heparin sodium anticoagulation tubes and centrifuged at 1900g for 10 min before storage at − 80 °C until analysis.

[2] = Continuous dose (QD) pharmacokinetics (cycle 1, day 28) in patients; format: in vivo, human (Chinese patients); conditions: continuous QD dosing, 100 mg to 800 mg
Experimental: as §1

[3] = tested on: advanced non-small cell lung cancer; assay: Tumor response assessed by investigators per RECIST v1.1; format: in vivo, human (Chinese patients); conditions: for Partial remission (PR) / Progressive disease (PD): number of patients (%)
[4] = tested on: c-MET [h]; set-up: method as in unpublished data; conditions: 0.2 μM in vitro; one range for all five kinases; ref unpublished data; cited from earlier work
[5] = tested on: AXL [h]; set-up: method as in unpublished data; conditions: 0.2 μM in vitro; one range for all five kinases; ref unpublished data; cited from earlier work
[6] = tested on: KDR [h]; set-up: method as in unpublished data; conditions: 0.2 μM in vitro; one range for all five kinases; ref unpublished data; cited from earlier work
[7] = tested on: DDR2[h]; set-up: method as in unpublished data; conditions: 0.2 μM in vitro; one range for all five kinases; ref unpublished data; cited from earlier work
[8] = tested on: Ron [h]; set-up: method as in unpublished data; conditions: 0.2 μM in vitro; one range for all five kinases; ref unpublished data; cited from earlier work
[9] = tested on: VEGFR; set-up: method as in unpublished data; conditions: preclinical; ref unpublished data; read-out: IC50 against VEGFR; cited from earlier work
[10] = molecular target: wild-type c-Met tyrosine kinase; conditions: enzymatic assay; read-out: IC50 against wild-type c-Met tyrosine kinase; cited from earlier work
[11] = tested on: EBC-1 cell line; conditions: read-out: IC50 against the growth of lung cancer EBC-1 cell line; cited from earlier work
[12] = molecular target: AXL kinase; conditions: read-out: IC50 against AXL kinase; cited from earlier work
[13] = tested on: lung adenocarcinoma patient-derived xenograft (PDX); conditions: with overexpression of c-MET; ref our preclinical study; cited from earlier work
[14] = tested on: phosphorylation of c-MET; conditions: patient-derived xenograft tumors and MET-amplified cell lines, dose-dependent; cited from earlier work
[15] = 100 mg/qd group (printed 1 0 mg/qd), n = 4
[16] = 20 patients, AEs reported by > 20% of patients
[17] = safety population N = 20, 100–800 mg qd, number of patients (%)

SMILES: O=C(Nc1ccc(Oc2ccnc3c2CCN3)c(F)c1)c1c[nH]cc(-c2ccc(F)cc2)c1=O
- dose at which exposure (AUC and Cmax) reached saturation [1]: 600 mg
- dose proportionality of maximal plasma concentration (Cmax) [1]: increased obviously less than dose proportionally
- dose proportionality of plasma exposure (AUC0–last) [1]: increased slightly less than dose proportionally
- mean t1/2 (half-life) [1]: 7.9 to 37.3 h
- time after which steady-state concentration was reached [2]: 28 days
- Disease control rate, % (95%CI) [3, 15]: 0 (NA, NA) %
- Objective remission rate, % (95%CI) [3, 15]: 0 (NA, NA) %
- Partial remission (PR) [3, 15]: 0
- Progressive disease (PD) [3, 15]: 3 (100.0%)
- Disease control rate, % (95%CI) ([3]; 200 mg/qd group, n = 3): 66.7 (9.43, 99.16) %
- Objective remission rate, % (95%CI) ([3]; 200 mg/qd group, n = 3): 0 (NA, NA) %
- Partial remission (PR) ([3]; 200 mg/qd group, n = 3): 0
- Progressive disease (PD) ([3]; 200 mg/qd group, n = 3): 1 (33.3%)
- Disease control rate, % (95%CI) ([3]; 300 mg/qd group, n = 3): 66.7 (9.43, 99.16) %
- Objective remission rate, % (95%CI) ([3]; 300 mg/qd group, n = 3): 0 (NA, NA) %
- Partial remission (PR) ([3]; 300 mg/qd group, n = 3): 0
- Progressive disease (PD) ([3]; 300 mg/qd group, n = 3): 1 (33.3%)
- Disease control rate, % (95%CI) ([3]; 450 mg/qd group, n = 4): 50.0 (6.76, 93.24) %
- Objective remission rate, % (95%CI) ([3]; 450 mg/qd group, n = 4): 0 (NA, NA) %
- Partial remission (PR) ([3]; 450 mg/qd group, n = 4): 0
- Progressive disease (PD) ([3]; 450 mg/qd group, n = 4): 2 (50.0%)
- Disease control rate, % (95%CI) ([3]; 600 mg/qd group, n = 3): 66.7 (9.43, 99.16) %
- Objective remission rate, % (95%CI) ([3]; 600 mg/qd group, n = 3): 0 (NA, NA) %
- Partial remission (PR) ([3]; 600 mg/qd group, n = 3): 0
- Progressive disease (PD) ([3]; 600 mg/qd group, n = 3): 1 (33.3%)
- Disease control rate, % (95%CI) ([3]; 800 mg/qd group, n = 3): 100.0(29.24,100.0) %
- Objective remission rate, % (95%CI) ([3]; 800 mg/qd group, n = 3): 33.3 (0.84, 90.57) %
- Partial remission (PR) ([3]; 800 mg/qd group, n = 3): 1 (33.3%)
- Progressive disease (PD) ([3]; 800 mg/qd group, n = 3): 0
- patients with tumor burden reduced from baseline ([3]; 19 evaluable patients): 53%
- ORR ([3]; 19 evaluable patients, text (95% CI 0.1–26%)): 5%
- DCR ([3]; 19 evaluable patients, text (95% CI 34–80%)): 58%
- Disease control rate, % (95%CI) ([3]; Total, N = 20 (19 evaluable)): 57.9 (33.50, 79.75) %
- Objective remission rate, % (95%CI) ([3]; Total, N = 20 (19 evaluable)): 5.3 (0.13, 26.03) %
- Partial remission (PR) ([3]; Total, N = 20 (19 evaluable)): 1 (5.3%)
- Progressive disease (PD) ([3]; Total, N = 20 (19 evaluable)): 8 (42.1%)
- number of patients with a partial response ([3]; among 19 evaluable patients): 1
- number of patients with stable disease ([3]; among 19 evaluable patients): 10 patients
- DCR ([3]; patients (n = 11) with MET gene amplification or c-MET overexpression, exploratory): 82%
- ORR ([3]; patients without MET dysregulation (eight patients), exploratory): 0%
- inhibition of c-MET [h] [4]: 88–100%
- AEs (any grades) leading to dose adjustment (600 mg/qd group): one patient
- AEs (any grades) leading to dose discontinuation (600 mg/qd group n = 2, 800 mg/qd group n = 2): four patients
- TRAE of grade 3 or higher: hypertension (20 patients): 15%
- TRAE of grade 3 or higher: laryngeal pain (20 patients): 5%
- TRAE of grade 3 or higher: pulmonary embolism (20 patients): 5%
- TRAE: constipation (20 patients): 30%
- TRAE: dysgeusia (20 patients): 40%
- TRAE: increased ALT / ALT elevation (20 patients): 40%
- gastrointestinal symptoms such as vomiting and diarrhea, frequency reported (20 patients): ≤ 10%
- patients experiencing grade 3 AEs (20 patients): 45%
- rate of dose reduction due to AEs (20 patients): 5%
- patients with TRAEs of grade 3 or higher during treatment (20 patients (300 mg/qd n = 1; 600 mg/qd n = 2; 800 mg/qd n = 1)): 20%
- patients with treatment-related AEs (20 patients, 100–800 mg qd): 85%
- TRAE: palmar-plantar erythrodysesthesia syndrome (20 patients, abstract): 15%
- TRAE: hypertension (20 patients, any grade): 25%
- AE (any cause): constipation [16]: 40%
- AE (any cause): dysgeusia [16]: 40%
- AE (any cause): hypertension [16]: 25%
- AE (any cause): increased alanine transaminase (ALT) [16]: 40%
- AE (any cause): increased conjugated bilirubin [16]: 25%
- AE (any cause): increased hemobilirubin [16]: 25%
- AE (any cause): nausea [16]: 25%
- dose-limiting toxicity (DLT) (doses up to 800 mg once daily): No dose-limiting toxicity (DLT) was observed
- maximum tolerated dose (MTD) (maximum dose investigated 800 mg QD): not reached
- serious adverse events (pulmonary embolism, 600 mg/qd group, probably related to study treatment): One serious adverse event
- Treatment-related adverse event: Constipation, Grade ≥ 3 [17]: 0
- Treatment-related adverse event: Constipation, any grade [17]: 6 (30%)
- Treatment-related adverse event: Dysgeusia, Grade ≥ 3 [17]: 0
- Treatment-related adverse event: Dysgeusia, any grade [17]: 8 (40%)
- Treatment-related adverse event: Hypertension, Grade ≥ 3 [17]: 3 (15%)
- Treatment-related adverse event: Hypertension, any grade [17]: 5 (25%)
- Treatment-related adverse event: Increase AST, Grade ≥ 3 [17]: 0
- Treatment-related adverse event: Increase AST, any grade [17]: 4 (20%)
- Treatment-related adverse event: Increased ALT, Grade ≥ 3 [17]: 0
- Treatment-related adverse event: Increased ALT, any grade [17]: 8 (40%)
- Treatment-related adverse event: Increased conjugated bilirubin, Grade ≥ 3 [17]: 0
- Treatment-related adverse event: Increased conjugated bilirubin, any grade [17]: 5 (25%)
- Treatment-related adverse event: Increased creatine phosphokinase, Grade ≥ 3 [17]: 0
- Treatment-related adverse event: Increased creatine phosphokinase, any grade [17]: 3 (15%)
- Treatment-related adverse event: Increased gamma-glutamyltransferase, Grade ≥ 3 [17]: 0
- Treatment-related adverse event: Increased gamma-glutamyltransferase, any grade [17]: 4 (20%)
- Treatment-related adverse event: Increased hemobilirubin, Grade ≥ 3 [17]: 0
- Treatment-related adverse event: Increased hemobilirubin, any grade [17]: 5 (25%)
- Treatment-related adverse event: Increased unconjugated bilirubin, Grade ≥ 3 [17]: 0
- Treatment-related adverse event: Increased unconjugated bilirubin, any grade [17]: 3 (15%)
- Treatment-related adverse event: Palmar-plantar erythrodysesthesia, Grade ≥ 3 [17]: 0
- Treatment-related adverse event: Palmar-plantar erythrodysesthesia, any grade [17]: 3 (15%)
- Treatment-related adverse event: Papulosis, Grade ≥ 3 [17]: 0
- Treatment-related adverse event: Papulosis, any grade [17]: 2 (10%)
- patients with drug discontinuation due to treatment-related AE (two patients in 600 mg/qd group and one in 800 mg/qd group): 15%
- inhibition of AXL [h] [5]: 88–100%
- inhibition of KDR [h] [6]: 88–100%
- inhibition of DDR2[h] [7]: 88–100%
- inhibition of Ron [h] [8]: 88–100%
- IC50 [9]: 30 nM
- IC50 [10]: 6 nM
- IC50 [11]: 120 nM
- IC50 [12]: 9 nM
- tumor growth of lung adenocarcinoma [13]: significantly inhibited tumor growth
- phosphorylation of c-MET and downstream signaling targets (ERK, AKT) [14]: inhibits the phosphorylation of c-MET
